In patent publication US20130225694A1, “COMPOSITIONS AND METHODS OF INHIBITING RETINAL DEGENERATION” (Oklahoma Medical Research Foundation, priority 2012, published 2013):
Read-outs that look alike come from different tables or passages of the source.

Experiments:
[1] = system: rhodopsin; assay: Rhodopsin regeneration after topical eye drops in mice; format: in vivo, Balb/c mice; settings: for % of Rhodopsin recovery: 5% in eye drop at 6, 3 and 0 h before dark adaptation, LA + 1 h DA, DA control = 100; for inhibition of rhodopsin regeneration as eye drop: eye drop formulation, summary of Table 7
Method: Panel A: Application scheme and harvesting of the eye. 3 h group received 2 applications and 6 h group received 3 applications. Panel B: Rhodopsin content was measured as pmole/eye. In 1 h in the dark, untreated eyes (NT-LA 1 h DA, no treatment-light adapted followed by 1 hour dark adaptation) and vehicle-treated eyes recovered 75-80% rhodopsin [dark-adapted (DA) control is 100%], whereas 3 h PBN recovered only 43% and 6 h PBN only 29%. (***P<0.0001 compared to vehicle, n=8; ##p<0.005 between 3 h and 6 h group, n=8).
An eye drop formulation was used with various absorption enhancers for topical application of PBN to mouse eyes. […] One hour dark adaptation followed by light causes 75-80% recovery of bleachable rhodopsin in the Balb/c mice (FIG. 18B, NT-LA 1 h DA). The eye drop without PBN (vehicle) had no effect on rhodopsin regeneration (FIG. 18B, vehicle).
Eye drop formulations were prepared as described in Example 7 and contained 5% or 10% of a PBN derivative. The eye drop formulations were applied to Balb/c mice by the 6 h group application scheme shown in FIG. 18A, in which the eye drops were applied at 6, 3, and 0 h before dark adaptation. The eye drops were applied to completely light-adapted mouse eyes, and the mice were then moved to the dark for 1 h to allow the regeneration of bleachable rhodopsin. One hour dark adaptation followed by light causes […] recovery of bleachable rhodopsin in untreated mice (00, No Treatment). The eye drop without any nitrones (vehicle) had no effect on rhodopsin regeneration (000, vehicle).

[2] = molecular target: T1, RPE65 isomerohydrolase (Bos taurus, UniProt Q28175); assay: In vitro RPE65 isomerohydrolase assay with bovine RPE microsomes (Example 3); format: biochemical; settings: for RPE65 inhibition compared with PBN: summary of Table 1
T1 construct: Bovine RPE microsomes were used as a source of the RPE65 protein; from tissue; host or cells: bovine RPE microsomes
Excerpt: In this Example, the effect of several PBN analogs on RPE65 isomerohydrolase activity was investigated in an in vitro assay. The chemical structures of the PBN analogs utilized are described herein above. Bovine RPE microsomes were used as a source of the RPE65 protein and all-trans-[^3H] retinol was a substrate for the isomerohydrolase assay. The produced 11-cis-[^3H] retinol was quantified by normal phase HPLC with flow scintillation analyzer. The inhibition of isomerohydrolase activity was dependent on the PBN analog's concentration.
FIG. 9 also illustrates the calculation of IC50 values for the two difluoro-PBN analogs. IC50 values are the concentration of the inhibitor that inhibits 50% of the enzymatic activity. Therefore, the smaller the IC50 value, the better the drug.

[3] = system: Rat Retina; assay: Light-induced retinal degeneration in rats, systemic (IP) nitrone; ERG and ONL histology; settings: for A-Wave value at 4 cd·sec/m^2 / B-Wave value at 4 cd·sec/m^2 / A-Wave value at 400 cd·sec/m^2 / B-Wave value at 400 cd·sec/m^2 / % Protection (A-Wave at 4 cd·sec/m^2) / % Protection (A-Wave at 400 cd·sec/m^2) / % Protection (B-Wave at 4 cd·sec/m^2) / % Protection (B-Wave at 400 cd·sec/m^2) / ONL Thickness (μm) Inferior retina / ONL Thickness (μm) Superior retina: 50 mg/kg IP 0.5 h before 2,700 lux 6 h; for A-Wave value at 4 cd·sec/m^2 / B-Wave value at 4 cd·sec/m^2: ERG flash 4.0 cd·sec/m^2 (mostly rod function); for A-Wave value at 400 cd·sec/m^2 / B-Wave value at 400 cd·sec/m^2: ERG flash 400.0 cd·sec/m^2 (rod and cone function); for % Protection (A-Wave at 4 cd·sec/m^2) / % Protection (A-Wave at 400 cd·sec/m^2) / % Protection (B-Wave at 4 cd·sec/m^2) / % Protection (B-Wave at 400 cd·sec/m^2) / % Protection (ONL, Inferior retina) / % Protection (ONL, Superior retina): NLD = 100, Saline LD = 0; for ONL Thickness (μm) Inferior retina / ONL Thickness (μm) Superior retina: histology; for protection of retinal function (ERG A- and B-wave) / protective effect on retinal photoreceptors compared with PBN: 50 mg/kg IP; for protection of retinal function (ERG A- and B-wave): FIGS. 11-12; for protective effect on retinal photoreceptors compared with PBN: ONL histology (FIGS. 14-16)
Method: Consistent with previous publications (1-2,5), a dose of 50 mg/kg PBN and S-PBN dissolved in saline was chosen for intraperitoneal injection in the rats in the treatment group. An equal volume of saline was injected into control rats.
A light-stress paradigm of 2,700 lux for 6 hours was used to test the effect of PBN at different time points before (0.5 hour, 3 hours, 6 hours, 12 hours, 16 hours, and 24 hours) or after (0.5 hour and 3 hours) light exposure. The effect of S-PBN was tested using the same dose and protocol of PBN at 0.5 hours before light exposure.
Electroretinography—After light exposure, rats were returned to their dim cyclic light (5-10 lux) environment for 7 days before ERG recordings were performed. Flash ERGs were recorded with the Diagnosys Espion E2 ERG System (Diagnosys, LLC, Lowell, Mass.). Rats were maintained in total darkness overnight and prepared for ERG recording under dim red light. They were anesthetized with ketamine (120 mg/kg body weight) and xylazine (6 mg/kg body weight) intramuscularly (IM). One drop of 10% (v/v) phenylephrine was applied to the cornea to dilate the pupil, and one drop of 0.5% (v/v) proparacaine HCl was applied for local anesthesia. Rats were kept on a heating pad at 37° C. during recordings. A gold electrode was placed on the cornea, a reference electrode was positioned in the mouth, and a ground electrode was placed on the foot; rats were then placed inside a Ganzfeld illuminating sphere. Responses were differentially amplified, averaged, and stored. For the assessment of rod photoreceptor function (scotopic ERG), five strobe flash stimuli were presented at flash intensities at −2.3, −1.3, 0.7, and 2.7 log cd·s/m^2. The amplitude of the a-wave was measured from the pre-stimulus baseline to the a-wave trough. The amplitude of the b-wave was measured from the trough of the a-wave to the peak of the b-wave. For the evaluation of cone function (photopic ERG), a strobe flash stimulus (3.3 log cd·s/m^2) was presented to dilated, light-adapted (5 minutes at 1.7 log cd·s/m^2) rats. The amplitude of the cone b-wave was measured from the trough of the a-wave to the peak of the b-wave.
Histology—After ERG recordings, rats were killed by carbon dioxide asphyxiation for light microscopic evaluation of retinal structure. Immediately after death, eyes were excised, placed in fixative (4% (w/v) paraformaldehyde, 2% (v/v) trichloroacetic acid, 20% (v/v) isopropyl alcohol, 2% (v/v) zinc chloride, and 72% (v/v) distilled water), and embedded in paraffin. Sections of 5 μm were cut along the vertical meridian through the optic nerve and stained with hematoxylin and eosin (H&E).
The PBN derivatives were injected intraperitoneally (IP) into albino SD rats at 50 mg/kg body weight at 0.5 hours before the start of light-damage exposure at 2,700 lux for 6 hours. After the exposure, the rats were moved to their dim cyclic room to recover for a week. Retinal damage/protection was assessed by functional analysis by ERG and structural analysis of histological sections. Dark adapted (12 hour) and Light adapted (for 2 hour) retinas were utilized as controls.

[4] = system: rhodopsin; assay: Rhodopsin regeneration after bleach in rats, IP nitrone; format: in vivo, rat; settings: Rattus norvegicus; rats, 50 mg/kg IP, 2 h room light then 2.5 h dark adaptation
Method: FIG. 10 graphically illustrates the effects of three PBN analogs of rhodopsin regeneration. Rhodopsin content was measured as nmole/retina following the procedure as in Mandal et al. (J Biol. Chem. 2011. 286 (37):32491-501). After injection with PBN derivatives or vehicles (saline), rats were left in room light for 2 hours (light adapted or LA) and then moved to dark. At 2.5 hours dark adaptation (DA), retinas were harvested. DA-Control, Dark adapted (12 h) control retina without any treatment to show normal rhodopsin content.
Measurement of rhodopsin regeneration—To measure the effect of PBN on the rate of rhodopsin regeneration, dark-adapted rats were injected intraperitoneally with PBN (50 mg/kg) or PBS 0.5 hour prior to a 2 hour bleach in room light (˜400 lux). Immediately following the bleach (time=0 minutes), a group of PBN- and vehicle-treated rats were killed, and retinas were removed and snap frozen. The remaining rats were dark-adapted, and retinas were collected under dim red light at 45, 90, and 180 minutes after the bleach.
Rhodopsin measurements were performed as described previously (2,36) with slight modification. Briefly, under dim red light, each retina was homogenized in 450 μl of buffer containing 10 mM Tris-HCl (pH 7.4), 150 mM NaCl, 1 mM EDTA, 2% (w/v) octylglucoside, and 50 mM hydroxylamine. Homogenates were centrifuged at 16,000 g, and soluble lysates were scanned from 270-800 nm in a spectrophotometer (Ultrospec 3000 UV/Vis Spectrophotometer, GE Healthcare, Piscataway, N.J.). Samples were then bleached under room light for 10 minutes and scanned again. The difference spectra at 500 nm between pre- and post-bleached samples were used to determine rhodopsin content using a molar extinction coefficient of […] (37). The values were normalized to the total lysate volume, and data are presented as rhodopsin content/retina.

[5] = apparent IC50, bovine RPE microsomes, all-trans-[3H] retinol substrate (Table 1), read-out: IC50 Values for the Inhibition of RPE65 Isomerohydrolase Reaction
[6] = in vitro RPE65 isomerohydrolase IC50 values repeated in Table 7, read-out: IC50

T1 sequence (Q28175 whole entry): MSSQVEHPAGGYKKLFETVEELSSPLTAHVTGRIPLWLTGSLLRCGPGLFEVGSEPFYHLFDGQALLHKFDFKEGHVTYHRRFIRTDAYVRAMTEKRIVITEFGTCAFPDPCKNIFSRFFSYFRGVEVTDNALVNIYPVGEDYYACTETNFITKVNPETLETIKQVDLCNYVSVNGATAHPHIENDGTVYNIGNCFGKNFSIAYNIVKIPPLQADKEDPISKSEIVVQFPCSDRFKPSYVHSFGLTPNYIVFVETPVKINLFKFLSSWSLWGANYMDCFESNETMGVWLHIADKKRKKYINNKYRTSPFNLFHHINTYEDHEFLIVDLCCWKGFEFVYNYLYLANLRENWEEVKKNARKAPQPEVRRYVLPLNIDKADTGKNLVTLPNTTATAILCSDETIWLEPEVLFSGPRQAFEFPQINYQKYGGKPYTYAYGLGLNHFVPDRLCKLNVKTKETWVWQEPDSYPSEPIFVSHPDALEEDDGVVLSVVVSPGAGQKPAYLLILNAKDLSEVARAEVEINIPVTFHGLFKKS

Compound | % of Rhodopsin recovery [1] | IC50 [2, 5] | IC50 [2, 6] | inhibition of rhodopsin regeneration as eye drop [1] | RPE65 inhibition compared with PBN [2] | A-Wave value at 4 cd·sec/m^2 [3] | B-Wave value at 4 cd·sec/m^2 [3] | A-Wave value at 400 cd·sec/m^2 [3] | B-Wave value at 400 cd·sec/m^2 [3] | % Protection (A-Wave at 4 cd·sec/m^2) [3] | % Protection (A-Wave at 400 cd·sec/m^2) [3] | % Protection (B-Wave at 4 cd·sec/m^2) [3] | % Protection (B-Wave at 400 cd·sec/m^2) [3] | ONL Thickness (μm) Inferior retina [3] | ONL Thickness (μm) Superior retina [3] | protection of retinal function (ERG A- and B-wave) [3] | protective effect on retinal photoreceptors compared with PBN [3] | % Protection (ONL, Inferior retina) [3] | % Protection (ONL, Superior retina) [3] | inhibition at 50 mg/kg [4]
COc1ccc(/C=[N+](\[O-])C(C)(C)C)cc1 [Compound 5, 4-Methoxyphenyl t-butyl nitrone] | 79.10% | 500 µM | 500 µM |  |  |  |  |  |  |  |  |  |  |  |  |  |  |  |  | 
CC(C)(C)/[N+]([O-])=C/c1ccc(F)c(F)c1 [Compound 10, 3,4-Difluorophenyl t-butyl nitrone] | 39.31% | 50 µM | 50 µM | more effective in inhibiting rhodopsin regeneration than PBN | more effective at inhibiting RPE65 activity than the native PBN molecule |  |  |  |  |  |  |  |  |  |  |  |  |  |  | 
CC(C)(C)/[N+]([O-])=C/c1cccc(F)c1 [Compound 8, 3-Fluorophenyl t-butyl nitrone] |  | 280 µM | 280 µM |  |  |  |  |  |  |  |  |  |  |  |  |  |  |  |  | 
CC(C)(C)/[N+]([O-])=C/c1ccc(C(F)(F)F)cc1 [Compound 3, 4-Trifluoromethylphenyl t-butyl nitrone] | 52.80% | 60 µM | 60 µM | more effective in inhibiting rhodopsin regeneration than PBN | more effective at inhibiting RPE65 activity than the native PBN molecule | 148.1 | 478.7 | 234.7 | 560.0 | 80.4% | 79.7% | 64.9% | 71.2% | 39.8 ± 1.1 μm | 36.8 ± 1.4 μm | protected retinal function significantly | comparable to that of PBN | 91.6% | 83.1% | 82%
Cc1ccc(/C=[N+](\[O-])C(C)(C)C)cc1 [Compound 4, 4-Methylphenyl t-butyl nitrone] | 32.54% | 100 µM | 100 µM | more effective in inhibiting rhodopsin regeneration than PBN |  | 126.4 | 369.9 | 191.3 | 443.9 | 65.9% | 63.6% | 48.1% | 54.7% | 36.2 ± 1.0 μm | 35.2 ± 1.2 μm | protected retinal function significantly | slightly lower than that observed for PBN | 79.7% | 79.1% | 54%
CC(C)(C)/[N+]([O-])=C/c1ccccc1F [Compound 7, 2-Fluorophenyl t-butyl nitrone] |  | 1300 µM | 1300 µM |  |  |  |  |  |  |  |  |  |  |  |  |  |  |  |  | 
CC(C)(C)/[N+]([O-])=C/c1ccc(F)cc1 [Compound 2, 4-Fluorophenyl t-butyl nitrone] | 81.15% | 60 µM | 60 µM | not effective at inhibiting rhodopsin regeneration | more effective at inhibiting RPE65 activity than the native PBN molecule | 163.0 | 572.4 | 295.7 | 762.6 | 90.4% | 102.3% | 79.5% | 99.8% | 42.4 ± 1.3 μm | 42.0 ± 1.4 μm | protected retinal function significantly | comparable to PBN, and even appears to provide more protection than PBN | 100% | 96.2% | 88%
CC(C)(C)/[N+]([O-])=C/c1cc(F)cc(F)c1 [Compound 9, 3,5-Difluorophenyl t-butyl nitrone] |  | 500 µM | 500 µM |  |  |  |  |  |  |  |  |  |  |  |  |  |  |  |  | 
CCOc1ccc(/C=[N+](\[O-])C(C)(C)C)cc1 [Compound 6, 4-Ethoxyphenyl t-butyl nitrone] | 81.99% | > 2000 µM | > 2000 µM |  |  |  |  |  |  |  |  |  |  |  |  |  |  |  |  | 
